# Earlier results in article PMC5862788 (Antiviral therapy, 2018).
# Where two headings read alike, the source gives them in different places.
# Tested on: HCV
smiles,measurement,setting,value
CC(C)C(=O)OC[C@H]1O[C@@H](n2ccc(N)nc2=O)[C@](C)(F)[C@@H]1OC(=O)C(C)C [mericitabine],predicted effectiveness ε,1500 mg bid,0.997
COC(=O)N[C@H](C(=O)N1CCC[C@H]1c1nc(-c2ccc(-c3ccc(-c4c[nH]c([C@@H]5CCCN5C(=O)[C@@H](NC(=O)OC)C(C)C)n4)cc3)cc2)c[nH]1)C(C)C [daclatasvir],predicted effectiveness ε,200 mg tid,0.996
CC(C)(C)OC(=O)N[C@H]1CCCCC/C=C\[C@@H]2C[C@@]2(C(=O)NS(=O)(=O)C2CC2)NC(=O)[C@@H]2C[C@@H](OC(=O)N3Cc4cccc(F)c4C3)CN2C1=O [danoprevir],predicted effectiveness ε,100 mg bid,0.976
same,predicted effectiveness ε,"monotherapy, 200 mg tid and 300 mg bid",0.992
